Reference: patent US20170157212A1, “CDK MODULATORS AND METHODS FOR THE TREATMENT OF CANCER” (Salk Institute for Biological Studies, priority 2015, published 2017)
“Also recorded” adds a separate entry of the source.

Target: T1, CDK9 (Homo sapiens, UniProt P50750)
T1 construct: endogenous in cells
Assay: Co-immunoprecipitation of CRIF1 with CDK9
Type: binding
Text: FIGS. 5A-5I. The Mitochondrial OX-PHOS Regulator, CRIF1, is a Novel Subunit of the Human CDK12 Kinase Complex. (A) Identification of CRIF1 as a near-stoichiometric subunit of the native CDK12 kinase complex. MudPIT analysis of CDK12 complexes from HEK293 cells that stably express HA-tagged full-length human CDK12. The HA-CDK12 complex was affinity-purified using anti-HA antibody and visualized by SDS-PAGE and silver-stain. (B) List of the identified proteins in the HA-CDK12 complex from (A). (C) Endogenous CRIF1 co-immunoprecipitates with native CDK12 in U2OS cell extracts. Shown is an immunoblot analysis of CRIF1, CCNK, and the chaperone proteins CDC37 and HSP90 in an anti-CDK12 immunoprecipitate. (D) CRIF1 is a specific subunit of the CDK12 complex. Native CRIF1 was immunoprecipitated from U2OS cells using an anti-CRIF1 antibody and analyzed by co-immunoprecipitation for association with various CDKs, as indicated. […] FLAG-CRIF1 proteins containing different C-terminal truncations were co-expressed with HA-CDK12 (aa 985-1490) and analyzed for binding by co-immunoprecipitation and immunoblot. […] Cell viability was analyzed after 72 hr. […] Expression of the mitochondrial MTCO-1 (COX1) protein was assessed using two different antisera. […] Each fraction (T; total, C:cytosolic, M:membrane/organelle, and N:nuclear) was analyzed by immunoblot using the indicated antibodies. […]

T1 sequence (P50750 whole entry): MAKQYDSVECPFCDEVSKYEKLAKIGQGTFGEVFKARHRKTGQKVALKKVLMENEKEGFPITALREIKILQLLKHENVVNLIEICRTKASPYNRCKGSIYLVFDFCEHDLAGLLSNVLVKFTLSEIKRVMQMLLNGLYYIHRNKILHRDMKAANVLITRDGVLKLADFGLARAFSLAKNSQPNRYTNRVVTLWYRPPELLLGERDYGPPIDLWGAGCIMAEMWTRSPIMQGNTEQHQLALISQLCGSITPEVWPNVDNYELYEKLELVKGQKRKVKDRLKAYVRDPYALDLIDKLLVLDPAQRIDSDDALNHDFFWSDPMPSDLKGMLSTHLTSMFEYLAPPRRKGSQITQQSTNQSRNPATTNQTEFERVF

**Q.** With “Growth Arrest and DNA Damage-Inducible Proteins-Interacting Protein 1 [CRIF1]” as the substance, how does the “presence in / binding to CDK9 complexes” value read?
**A.** Its value is “not present; also recorded: does not bind”.
